According to US5332531A, “Extracting metal ions with diphosphonic acid, or derivative thereof” (priority 1992, dated 1994):
Counter-ions that a name gives are not always drawn. Like-named read-outs stand apart in the source and are kept apart here.

What was measured:
[1] = Aqueous solubility of metal ion complexes; assay type: physicochemical
Procedure: (§1) In addition, compounds were screened for their ability to readily decompose. Thermal degradation of the thermodynamically-unstable complexing agents was performed by heating the complexing agent in 8M HNO3 at 100° C. The thermal degradation of the compounds were followed by analysis via ^1 H, ^13 C and ^31 P NMR (nuclear magnetic resonance) spectroscopy. Furthermore, the water-solubility of metal ion complexes formed with the inventive complexing agents was determined by using macroquantities of neodymium (III), i.e., Nd(III); thorium (IV), i.e., Th(IV), and uranium (VI), i.e., U(VI).
(§2) After synthesis, the thermodynamically-unstable complexing agents of the present invention were tested for thermal stability and susceptibility to oxidation by using ^1 H, ^13 C and ^31 P NMR spectroscopy. Furthermore, the acid dissociation constants, i.e., the pKa values, of the thermodynamically-unstable complexing agents were determined by standard potentiometric titration methods. Finally, the thermodynamically-unstable diphosphonic acid complexing agents of the present invention were analyzed with respect to their ability to complex metal ions and with respect to the aqueous solubility of the resulting metal ion complexes. In addition, the solubility of the uncomplexed thermodynamically-unstable complexing agents was determined by using macro-concentrations of neodymium(III) as a substitute for the trivalent actinides; of thorium(IV), as a substitute for plutonium(IV) and neptunium(IV); of uranyl(VI), as representative for all actinide(VI) ions; of iron(III); and of zirconium. The variables included in this solubility determination were the thermally-unstable complexing agent-to-metal ion ratio, the metal ion concentration, and the pH.

[2] = assay type: physicochemical; settings: for resistance to degradation: mild thermal and/or oxidation conditions
Procedure: as §1
As a result, autodecomposition is observed when the thermodynamically-unstable complexing agents of the present invention complex with metal ions such as ruthenium or tungsten.
as §2
More particularly, ^1 H, ^13 C, and ^31 P NMR spectroscopy was used to elucidate and measure the thermal degradation pathways of the thermally-unstable complexing agents of structural formula I, and to evaluate synthesis efforts. For example, ^31 P NMR spectroscopy is especially valuable in identifying the type of phosphorus compound that is synthesized or the type of phosphorous compound produced upon degradation of the thermally-unstable complexing agent. As a result, ^31 P NMR spectroscopy provides a method of showing that a particular diphosphonic acid compound actually was synthesized.

[3] = Acid dissociation constants by potentiometric (pH) titration; assay type: physicochemical; settings: for pK1 / pK2 / pK3 / pK4: ionic strength 2 M (NaNO3)
Procedure: as §2
In addition, the thermodynamics of protonation of the thermodynamically-unstable complexing agents of the present invention was investigated by potentiometric (pH) titration.
The acidity constants of the thermodynamically-unstable complexing agents are important in the interpretation of metal ion complexation studies, and also serve as a preliminary indicator of metal ion complex stability and conformation. TABLE III summarizes the acid dissocation constants (pKa) of three substituted diphosphonic acids of the present invention. The acid dissociation constants of oxalic and phosphoric acids are included for comparison.
Metal ion complexation with the thermodynamically-unstable complexing agent was investigated using the solvent extraction distribution ratio method. The medium used in all of the protonation and complexation studies was 2.0M NaNO3 /HNO3. The relatively high ionic strength of this medium was utilized in order to minimize interferences due to activity coefficient changes. Data interpretation in all experiments was accomplished by the application of a generic least-squares program written in BASIC. The program applies a Newton-Raphson type iterative process to the data and minimizes the sum of squares of the residuals. The generic program was adapted to several different forms to fit distribution ratio lowering (Do/D) vs. free ligand concentration measurements, and p (average proton number) data from potentiometric titrations.

[4] = 1 M ionic strength, included for comparison; cited from earlier work
[5] = Autodecomposition / storage stability at room or ambient temperature; assay type: physicochemical
Dissolution of Goethite = settings: 0.5M solution, 100 mg Goethite, 80° C., four hours
Excerpt: One difficulty, is to ensure contact with ions "embedded" in the surface to be decontaminated. This usually requires destruction or dissolution of a surface oxide layer when the surface is metal. […] This oxide of iron is considered one of the more difficult to penetrate.

[6] = Removal of uranium from groundwater, supported liquid membrane-based process; settings: 60° to 70° C. overnight, strip solution with uranium
Excerpt: Aqueous solutions of the thermodynamically-unstable complexing agents of the present invention can be used in commercially available supported liquid membrane-based modules to strip metal ion contaminants from aqueous solution. Other devices using a porous membrane separating means can also be used. In general the aqueous solution containing uranium is in contact with one side of the porous membrane and the aqueous solution of the complexing agent is in contact with the other. A known organic extractant is permeated into the pores of the membrane to carry the metal ions from one side to the other. The aqueous solution of the complexing agent strips metal ions from the organic extractant in the pores, driving the extraction "reaction" toward removal of metal ions from the solution to be decontaminated.
Aqueous solutions of the thermodynamically-unstable complexing agent described in this application are useful as stripping agents in a supported liquid membrane-based process for removal of uranium contaminants from groundwater. In this process, groundwater containing 10^-4 M uranium is acidified to pH of 2 by addition of small amounts of sulfuric acid and passed through porous polypropylene hollow fibers in a supported liquid membrane module. The pores of the membrane are filled with 0.1M bis(2,4,4-trimethylpentyl)phosphinic acid in n-dodecane. […]

CC(O)(P(=O)(O)O)P(=O)(O)O [HEDPA, 1-hydroxyethane-1,1-diphosphonic acid, reference compound]
aqueous solubility of neodymium (III) complexes ([1]; acid media): only moderate aqueous solubilities
aqueous solubility of thorium (IV) complexes ([1]; acid media): only moderate aqueous solubilities
resistance to degradation [2]: ability to resist decomposition
resistance to degradation ([2]; listed as compound VIII): resisted degradation under mild thermal and/or oxidation conditions
pK1 [3]: 1.53
pK2 [3]: 2.16
pK3 [3]: 6.18
pK4 [3]: 9.09

O=C(O)C(=O)O [Oxalic Acid, oxalic acid]
pK2 [4]: 3.55

C=C(P(=O)(O)O)P(=O)(O)O [VDPA, vinylidenediphosphonic acid]
stability ([5]; free acid form): stable
stability ([5]; sodium (tetrasodium) salt form): stable
solubility of metal ion complexes ([1]; acidic media): very soluble
decomposition ([2]; aqueous hydrogen peroxide, moderately elevated temperatures): decomposes within hours
decomposition ([2]; boiling nitric acid): decomposes within hours
decomposition by metal catalyzed oxidation ([2]; hydrogen peroxide, metal catalyzed): readily decomposed
decomposition after complexing with a metal ion ([2]; salts of vanadium(V)): can be decomposed by salts of vanadium(V) under very mild conditions
Goethite dissolved (Dissolution of Goethite): 40%
pK1 [3]: 1.41
pK2 [3]: 2.05
pK3 [3]: 5.98
pK4 [3]: 8.58
time of destruction by heating [6]: about 5 hours

O=C(O)CC(=O)O [malonic acid, reference compound]
Goethite dissolved (Dissolution of Goethite): 8%

O=P(O)(O)C(O)(CO)P(=O)(O)O [DHEDPA, 1,2-dihydroxyethane-1,1-diphosphonic acid]
products of autodecomposition ([5]; free acid form): water, carbon dioxide and phosphoric acid
conversion on previous attempts to isolate free acid ([5]; free acid form, as taught by prior art patent references): essentially immediate conversion
half-life of autodecomposition ([5]; free acid form, room / ambient temperature): about 15 days
products of autodecomposition ([5]; free acid form, listed as compound X): phosphorous and phosphoric acids
stability ([5]; sodium (tetrasodium) salt form, listed as 1,2-dihydroxyethane-1,1-diphosphonic acid): stable indefinitely
time to total decomposition ([2]; free acid form, boiling 8M HNO3): about 3 hours
decomposition ([2]; free acid form, hydrogen peroxide at about 60° C.): totally decomposes
acid strength (in words) ([3]; TABLE III comparison): strongest acid
pK1 [3]: 0.91
pK2 [3]: 1.59
pK3 [3]: 5.82
pK4 [3]: 7.97

O=C(O)C(O)(P(=O)(O)O)P(=O)(O)O [compound VII, carboxyhydroxymethanediphosphonic acid]
products of autodecomposition ([5]; free acid form): carbon dioxide, water and phosphoric acid
half-life of autodecomposition (in words) ([5]; free acid form, room temperature): from about two days to about three days

O=P(O)(O)C(O)(CO)P(=O)(O)O [tetrasodium salt of compound X]
stability ([5]; sodium (tetrasodium) salt form): stable indefinitely at room temperature
